Results: ChEMBL document CHEMBL3886909, “7-hydroxy-spiropipiperidine indolinyl antagonists of P2Y1 receptor” (2016)

Experiments:
P2Y purinoceptor 1 [1] = biological target: T1, P2Y purinoceptor 1 (Homo sapiens, UniProt P47900); test: Scintillation Proximity Assay (SPA): A SPA membrane binding assay was used to identify inhibitors of [33P] […] Binding reactions were performed in 384-well OptiPlates (PerkinElmer Life Sciences, Cat #6007299) in a volume of 50 uL containing 15 fmol of P2Y1 receptor (1.7 ug of total protein), 0.3 nM [33P] […] Reactions were allowed to proceed to completion at room temperature for 1 hour followed by centrifugation of the plate for 5 min. About 40 uL of the aqueous soluttion was aspirated. Plates were sealed and the [33P]
P2Y purinoceptor 1 [2] = biological target: T1, P2Y purinoceptor 1; test: Binding Assay: Binding reactions were performed in WGA FLASHPLATEs (PerkinElmer Life Sciences, Cat # SMP105A) in a volume of 200 uL containing 45 fmol of P2Y1 receptor (5 ug of total protein), 0.5 nM [33P] […] Reactions were allowed to proceed to completion at room temperature for 1 hour and then the aqueous solution aspirated.

T1 sequence (P47900 whole entry): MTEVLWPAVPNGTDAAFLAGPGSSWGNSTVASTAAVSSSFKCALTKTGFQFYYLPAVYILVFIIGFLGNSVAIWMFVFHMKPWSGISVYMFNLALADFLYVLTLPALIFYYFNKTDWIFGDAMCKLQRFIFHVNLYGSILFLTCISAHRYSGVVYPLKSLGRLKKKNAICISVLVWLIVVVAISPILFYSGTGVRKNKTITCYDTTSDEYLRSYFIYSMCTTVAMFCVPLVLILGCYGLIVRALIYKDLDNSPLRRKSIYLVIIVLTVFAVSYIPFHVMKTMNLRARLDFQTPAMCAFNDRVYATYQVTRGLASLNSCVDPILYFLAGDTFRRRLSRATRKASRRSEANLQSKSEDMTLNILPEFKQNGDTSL

CC(C)(C)CN1CCC2(CC1)CN(c1ccccc1NC(=O)Nc1csc(Cl)n1)c1c(O)ccc(-c3nc4cccc(Cl)c4s3)c12
Ki (P2Y purinoceptor 1 [1]): 18.4 nM

CC(C)(C)CN1CCC2(CC1)CN(c1ccccc1NC(=O)Nc1ccc(OC(F)(F)F)cc1)c1c(O)ccc(-c3nc4cc(Cl)ccc4s3)c12
Ki (P2Y purinoceptor 1 [1]): 137 nM

CC(C)(C)CN1CCC2(CC1)CN(c1ccccc1NC(=O)Nc1csc(Cl)n1)c1c(O)cc(F)c(Cl)c12
Ki (P2Y purinoceptor 1 [1]): 19 nM

CC(C)(C)CN1CCC2(CC1)CN(c1ccccc1NC(=O)Nc1nc3ccc(F)cc3s1)c1c(O)ccc(-c3nc4cc(Cl)ccc4s3)c12
Ki (P2Y purinoceptor 1 [1]): 1.2 nM

CC(C)(C)CN1CCC2(CC1)CN(c1ccccc1NC(=O)Nc1nc3ccc(F)cc3s1)c1c(O)ccc(-c3nc4ccc(Cl)cc4s3)c12
Ki (P2Y purinoceptor 1 [1]): 104 nM

CC(C)(C)CN1CCC2(CC1)CN(c1ccccc1NC(=O)Nc1nc3ccc(Cl)nc3s1)c1c(O)ccc(-c3nc4cc(Cl)ccc4s3)c12
Ki (P2Y purinoceptor 1 [1]): 53.7 nM

CC(C)(C)CN1CCC2(CC1)CN(c1ccccc1NC(=O)Nc1ccc(OC(F)(F)F)cc1)c1c(O)cc(F)cc12
Ki (P2Y purinoceptor 1 [2]): 9.1 nM

CC(C)CN1CCC2(CC1)CN(c1ccccc1NC(=O)Nc1ccc(OC(F)(F)F)cc1)c1c(O)ccc(-c3nc4cc(Cl)ccc4s3)c12
Ki (P2Y purinoceptor 1 [1]): 9.6 nM

CC(C)(C)CN1CCC2(CC1)CN(c1ccccc1NC(=O)Nc1nc3ccc(Cl)nc3s1)c1c(O)ccc(-c3nc4cc(C(F)(F)F)ccc4s3)c12
Ki (P2Y purinoceptor 1 [1]): 24.6 nM

CC(C)(C)CN1CCC2(CC1)CN(c1ccccc1NC(=O)Nc1ccc(OC(F)(F)F)cc1)c1c(O)ccc(-c3nc4ccc(Cl)cc4s3)c12
Ki (P2Y purinoceptor 1 [1]): 73.4 nM

CC(C)N1CCC2(CC1)CN(c1ccccc1NC(=O)Nc1ccc(OC(F)(F)F)cc1)c1c(O)ccc(-c3nc4cc(Cl)ccc4s3)c12
Ki (P2Y purinoceptor 1 [1]): 24 nM

CC(C)(C)CN1CCC2(CC1)CN(c1ccccc1NC(=O)Nc1csc(Cl)n1)c1c(O)ccc(-c3nc4cc(Cl)ccc4s3)c12
Ki (P2Y purinoceptor 1 [1]): 9.1 nM

CC(C)(C)CN1CCC2(CC1)CN(c1ccccc1NC(=O)Nc1nc3ccc(Cl)cc3s1)c1c(O)cc(F)c(Cl)c12
Ki (P2Y purinoceptor 1 [1]): 23.1 nM
